Assay results taken from article PMC5770433, “A new group of synthetic phenolic-containing amphiphilic molecules for multipurpose applications: Physico-chemical characterization and cell-toxicity study” (Scientific Reports, 2018).
“And” between values parts separate entries of the source, which are not always exact repeats. Equal values may be shown once. Values belong to the compound of their own block, whether it stands above or below them.

Legend:
[1] = Temp-ramp FT-IR determination of lateral lipid chain packing; assay type: physicochemical; conditions: FT-IR CH2 rocking region, 28 °C
Experimental: Fourier transform infrared spectroscopy (FT-IR) was applied to determine the molecular organization of the amphiphilic lipids. Spectra were recorded using an ATR-FTIR (PIKE, Madison, WI; Bruker, Ettlingen, Germany). The synthesized compounds were dried under low pressure over night, and then pressed onto a ZnSe ATR crystal mounted in a trough plate. […] Spectra were collected with a spectral resolution of 4 cm^−1 with 8 scans over the range of 3500–650 cm^−1. The FTIR spectra were analyzed by using MicroCal Origin 9.0 software.

[2] = Lipid oxidation in fish oil-in-water emulsions (TBARS assay); conditions: relative to emulsions with commercial DATEM, after 7 days (1 week) of storage
Experimental: (§1) The synthetic compounds were evaluated as emulsifiers for fish oil-in-water emulsions and compared to commercial DATEM. Emulsions consisting of 30.0% fish oil were prepared using 1.5 mL (0.1 M) of emulsifier solutions in phosphate buffer (pH 7.0). Coarse emulsions were first created by homogenization of lipid and aqueous phases (PRO250, PRO Scientific, Oxford, USA) at high speed for two minutes at room temperature. Further reduction particle size was achieved by use of a probe sonicator (Branson sonifier 250, Branson ultrasonics, Danbury, US) for a period of 3 min.
The ability of the new emulsifiers to inhibit lipid oxidation in emulsions was evaluated using Thiobarbituric acid-reactive species (TBARS) assay. TBARS were used to measure the formation of malondialdehyde, a major product of lipid oxidation, in emulsions after one week of storage. A solution of TCA-TBA-HCl was prepared by mixing 15 g of TCA, 375 mg TBA, 1.76 ml 12 N HCl, and 82.9 ml water. […] of this solution was mixed with 20 µl of the emulsion sample previously in 1 ml of distilled water. Thereafter, the mixture was heated at 100 °C for 15 min, cooled to room temperature within 10 min under a running tap water, and centrifuged at 2000×g for 15 min[22]. TBA formed colored complexes with the secondary oxidation products, which were detected in a UV-visible spectrophotometer (Cary 50Bio, Varian, Australia) at 532 nm. The relative degree of oxidation in each emulsion was calculated with respect to the degree of oxidation in emulsions with commercial DATEM, according to Equation (3), where AS is the absorbance of samples with added stabilizer, and A0 is the absorbance of samples with no added emulsifier. Measurements were taken on duplicate emulsion samples.2 Oxidation(%)=AS/AO×100

[3] = Creaming stability (creaming index) of 30% fish oil-in-water emulsions; assay type: physicochemical; conditions: 30% fish oil-in-water emulsion, storage at 5 °C, 7 days
Experimental: as §1
To examine their creaming stability, duplicate emulsions were transferred to clear, screw-capped 15 mL vials (diameter 1.8 cm) and stored at 5 °C. By aid of daily digital photographs, the phase separation in each emulsion was monitored over 7 days. The extent of creaming was characterized by the creaming index (CI) according to Equation (2), where HA is the height of the lower, aqueous phase, and HE is the total height of emulsion[30]).1 %CI=HA/HE×100

[4] = Langmuir isotherm of monolayer; assay type: physicochemical; conditions: aqueous subphase, neutral pH
Experimental: (§2) Langmuir-Blodgett studies was carried out for compound C14, being the ultimate compound with both surface active and antioxidant properties, according to the method of Correa et al.[29] with slight modications. Experiments were performed in aqueous solutions at neutral pH. Briefly, 20 µl of 2 mg/mL solution of C14 in chloroform:methanol (9:1, v/v) was applied to the aqueous phase and allowed to evaporate for a period of 20 min. Thereafter, the barriers were compressed at a constant rate of ~9 Å/ (chain min) until film collapsed. After stable conditions were attained, deposition of the corresponding film was carried out onto a hydrophilic mica support at a pressure just before film collapsed. The deposited monolayers on mica were left to air dry overnight. AFM images were acquired at ambient conditions by air tapping mode using a silicon tip on a micro cantilever (Olympus Inc., Japan) with a spring constant of 26 N/m and resonant frequency of 300 kHz. All measurements were performed in the center of the sample. Analyses were done in duplicates.

[5] = Atomic force microscopy of Langmuir-Blodgett films on mica; assay type: physicochemical; conditions: film transferred to mica at ~22 mN/m
Experimental: as §2

[6] = Critical micelle concentration by pyrene fluorescence method; assay type: physicochemical; conditions: in water
Experimental: Critical Micelle Concentration (CMC) values of the synthetic compounds were determined by pyrene fluorescence method[28] using a Varian Cary Eclipse Fluorescence spectrometer (Agilent Technology, California, USA). The respective solutions were prepared using water previously saturated with pyrene (1 µM final concentration) in different concentrations (0.000001, 0.00001, 0.0001, 0.001, 0.01, 0.1, 1, 2.5, 5, 10, 15, 20 mM). Emission spectra of pyrene were obtained by exciting the samples at 334 nm. The fluorescence intensity ratio of I1/I3 (I1 = 373 nm, I3 = 383 nm) was plotted against sample solution concentration. The concentration at which the first break occurs was referred as the CMC value of the compound in water. Measurements were determined in triplicate.

SMILES: CCCCCCCCCCCCCC(=O)OCC(O)COC(=O)C(CC(=O)O)OC(=O)/C=C/c1ccc(OC)c(OC)c1 (stereo not shown) [C14]
Surface pressure at monolayer collapse [4]: 39 mN/m
Lipid packing mode [1]: Hexagonal
Double-layer film thickness [5]: 5.2 nm and 6.7 nm
Monolayer film thickness [5]: 2.3 nm
Creaming index (CI) [3]: 0%

SMILES: CCCCCCCC(=O)OCC(O)COC(=O)C(CC(=O)O)OC(=O)/C=C/c1ccc(OC)c(OC)c1 (stereo not shown) [C8]
Lipid packing mode [1]: Hexagonal
Creaming index (CI) [3]: 15.1%
Critical micelle concentration (CMC) [6]: 10 mM

SMILES: CCCCCCCCCC(=O)OCC(O)COC(=O)C(CC(=O)O)OC(=O)/C=C/c1ccc(OC)c(OC)c1 (stereo not shown) [C10]
Lipid packing mode [1]: Hexagonal
Creaming index (CI) [3]: 10.35%
Critical micelle concentration (CMC) [6]: 5 mM

SMILES: CCCCCCCCCCCC(=O)OCC(O)COC(=O)C(CC(=O)O)OC(=O)/C=C/c1ccc(O)c(O)c1 (stereo not shown) [C12a]
Lipid packing mode [1]: Hexagonal
Relative oxidation in emulsions (as TBARS) [2]: 25.72 ± 0.03%
Creaming index (CI) [3]: 0%

SMILES: CCCCCCCCCCCC(=O)OCC(O)COC(=O)C(CC(=O)O)OC(=O)/C=C/c1ccc(OC)c(OC)c1 (stereo not shown) [C12]
Lipid packing mode [1]: Hexagonal
Creaming index (CI) [3]: 0%

More lines, main results first:

Lipid packing mode [1]: Hexagonal
Creaming index (CI) [3]: 0%
SMILES: CCCCCCCCCCCCCCCC(=O)OCC(O)COC(=O)C(CC(=O)O)OC(=O)/C=C/c1ccc(O)c(O)c1 (stereo not shown) [C16a]
Relative oxidation in emulsions (as TBARS) [2]: 39.04 ± 0.02%

Lipid packing mode [1]: Hexagonal
Creaming index (CI) [3]: 0%
SMILES: CCCCCCCCCCCCCCCC(=O)OCC(O)COC(=O)C(CC(=O)O)OC(=O)/C=C/c1ccc(OC)c(OC)c1 (stereo not shown) [C16]

Lipid packing mode [1]: Hexagonal
Creaming index (CI) [3]: 0%
SMILES: CCCCCCCCCCCCCC(=O)OCC(O)COC(=O)C(CC(=O)O)OC(=O)/C=C/c1ccc(O)c(O)c1 (stereo not shown) [C14a]
Relative oxidation in emulsions (as TBARS) [2]: 19.26 ± 0.05%

Lipid packing mode [1]: Orthorhombic
melting point: 38 °C
Creaming index (CI) [3]: 37.2%
Critical micelle concentration (CMC) [6]: 0.01 mM
SMILES: CCCCCCCCCCCCCCCCCC(=O)OCC(O)COC(=O)C(CC(=O)O)OC(=O)/C=C/c1ccc(OC)c(OC)c1 (stereo not shown) [C18]
